Assay results as given in patent US20170265465A1, “BIORATIONAL TREATMENT PRODUCTS AND METHODS OF USING SAME” (Board of Trustees of Michigan State University, priority 2014, published 2017).

What was measured:
Format in all cases: in vivo
[1] = test system: irrigated putting green; test: Example 15: dried clipping weights; settings: application interval 14 days; for All Clippings (Dried), Mean Total Clippings: Sept 19-Oct. 24
Experimental: Some biomass ratings were subjective visual estimations based on appearance of a combination of increased biomass and increased density on a 1 (least increase) to 9 (most increase) scale. Objective biomass ratings were also performed based on an increase in dried weight of clippings. Clippings were collected over pre-measured plot areas in each treatment replicate using a Toro® brand walk-behind greens mower Model Greensmaster 8000 at the height described in this Example and dried in a drying oven (60° C.) for approximately 48 hours before being weighed.
(§1) The study was established in four replications of a randomized block design utilizing 2 ft.×21 ft. plots with 6 inch alleys. Treatments were initially applied on Sep. 13, 2016 with the same sprayer and under the same conditions described in Example 1. Turfgrass quality ratings and biomass ratings were performed as described in Example 1. The plots were trimmed on September 19, October 8, and Oct. 24, 2016 and clippings were also collected as described in Example 1.
(§2) Treatments were re-applied on Sep. 28, 2016 and Oct. 11, 2016. Turfgrass visual growth and quality ratings were taken periodically, along with turfgrass color ratings as taken with a Spectrum Technologies, Inc. TCM 500 NDVI Color Meter and a Spectrum Technologies, Inc. FieldScout CM 1000 Chlorophyll Meter. The study was irrigated as needed to prevent wilt. No background fertility was applied to the study area. The area was sprayed with 26GT fungicide on Sep. 27, 2016 to control dollar spot disease.

[2] = test system: irrigated putting green; test: Example 15, 2016 bio-adjuvant/fertility study: visual turfgrass quality rating; settings: scale 1-9 (1 = worst, 9 = best, 7 = acceptable)
Experimental: as §1, §2

[3] = test system: irrigated putting green; test: Example 15: turfgrass color rating, TCM 500 NDVI Color Meter; settings: Sept. 16, TCM 500 NDVI Turf Color Meter
Experimental: as §1, §2

[4] = test system: creeping bentgrass (Argostis palustris) fairway; test: Example 2: clippings (biomass) dry weight
Experimental: Objective biomass ratings were also performed based on an increase in dried weight of clippings. Clippings were collected over pre-measured plot areas in each treatment replicate using a Toro® brand walk-behind greens mower Model […] 8000 at the height described in this Example and dried in a drying oven (60° C.) for approximately 48 hours before being weighed. […] Prior to the study, diseases were controlled with as-needed fungicide applications. Fertility was maintained at approximately 0.1 lb.

[5] = test system: irrigated putting green; test: Example 15: dew rating; settings: Sept. 15, visual scale 1 = least
Experimental: as §1, §2
Dew reduction (Table 25) is directly related to the amount of bio-adjuvant applied, specifically, the amount of canola oil in the treatment. Dew reduction is relevant to disease control because it can translate into reduced foliar disease pressure, and reduced frost accumulation. […] 15, 2016.

[6] = test system: winter-dormant creeping bentgrass putting green (Agrostis palustris); test: Example 4, 2013 spring green-up/winter dormancy break study: turfgrass quality rating; settings: May 11, 2013; scale 1-9, 7 = acceptable; per 1000 ft^2, as far as in the treatment: canola oil concentrate (94.7%:4.7%:0.8% oil:Foursome:Silwet L-77) 8 fl. oz., Urea 0.2 lb. N
Excerpt: This study was established on a brown, desiccated, winter-dormant creeping bentgrass putting green (Agrostis palustris) (˜0.15 in ([…]) height of cut) on the same research center as in previous examples. The study was established in four replications of a randomized block design, using 2 ft.×7.5 ft. (0.6 m×2.3 m) plots with 6 in. (0.15 m) alleys. Treatments were applied with the backpack sprayer described in Example 1 operating at 40 PSI (2.8 kg/cm^2) with a 96 GPA (898 L/ha) spray volume. Treatments were applied in this “green-up”/winter dormancy break study on a 21-day schedule on Apr. 5, 2013, and Apr. 27, 2013 Turfgrass quality ratings in this example included observations of increased density, increased growth, and degree of color intensity change. These observations were taken on May 11, 2013, and were based on a visual 1 (worst) −9 (best) rating scale, with a 7-rating representing acceptable turfgrass “quality.”

[7] = test system: creeping bentgrass (Argostis palustris) fairway; test: Example 2: visual growth (biomass) rating; settings: scale 1 = least, 9 = most increase
[8] = test system: creeping bentgrass (Argostis palustris) fairway; test: Example 2, 2013 urea (46-0-0)/canola oil study: turfgrass quality rating; settings: scale 1-9, 7 = acceptable
Excerpt: This study was established on an irrigated, creeping bentgrass (Argostis palustris) fairway (˜0.5 in (1.3 cm) height of cut) on the same research center as in Example 1. The study was established in four replications of a randomized block design, using 2 ft.×10.5 ft. (0.6 m×3.2 m) plots with 6 in. (0.15 m) alleys. Prior to the study, diseases were controlled with as-needed fungicide applications. Fertility was maintained at approximately 0.1 lb. N/1000 ft^2 (0.49 g/m^2)/mo. […] Turfgrass quality ratings and biomass ratings were performed as described in Example 1. Clippings were also collected as described in Example 1.
Treatments of sprayable urea (46-0-0) (The Andersons, Inc.) hereinafter “Urea (46-0-0)” and Civitas/Harmonizer fungicide/turf pigment (Suncor Energy Corp.) were applied initially on Aug. 22, 2013.

[9] = Trt. 4, 0.1 lb N/1000 sq. ft. /14 days
[10] = Trt. 5, 0.05 lb N/1000 sq. ft. /14 days
[11] = Sep. 3, 2013, one application, per 1000 ft^2, as far as in the treatment: Urea 0.1 lb. N, Canola Oil Concentrate/Bio-Adjuvant 10 fl. oz., Civitas 8 + Harmonizer 0.5 fl. oz.
[12] = Sep. 3, 2013, Urea 0.2 lb. N/1000 ft^2, Canola Oil 10 fl. oz. or Civitas 8 + Harmonizer 0.5 fl. oz. where in the treatment
[13] = Sep. 3, 2013, Urea 0.3 lb. N/1000 ft^2, Canola Oil Bio-Adjuvant 10 fl. oz. or Civitas 8 + Harmonizer 0.5 fl. oz. where in the treatment

NC(N)=O [Urea (46-0-0), urea]
Dried Clipping Weight, Mean ([1]; Trt. 4, 0.1 lb N/1000 sq. ft., Oct. 8): 62.5 gms | Dried Clipping Weight, Mean ([1]; Trt. 4, 0.1 lb N/1000 sq. ft., Oct. 24): 55.8 gms | All Clippings (Dried), Mean Total Clippings ([1]; Trt. 4, 0.1 lb N/1000 sq. ft.): 189.8 gms | Dried Clipping Weight, Mean ([1]; Trt. 4, 0.1 lb N/1000 sq. ft., Sept. 19): 71.5 gms | Dried Clipping Weight, Mean ([1]; Trt. 5, 0.05 lb N/1000 sq. ft., Oct. 8): 59.5 gms | Dried Clipping Weight, Mean ([1]; Trt. 5, 0.05 lb N/1000 sq. ft., Oct. 24): 46.5 gms | All Clippings (Dried), Mean Total Clippings ([1]; Trt. 5, 0.05 lb N/1000 sq. ft.): 177.3 gms | Dried Clipping Weight, Mean ([1]; Trt. 5, 0.05 lb N/1000 sq. ft., Sept. 19): 71.3 gms | Visual Turfgrass Quality, MEAN ([2]; Trt. 4, 0.1 lb N/1000 sq. ft. /14 days, Oct. 1 (3 DAT)): 7.0 | Visual Turfgrass Quality, MEAN ([2]; Trt. 4, 0.1 lb N/1000 sq. ft. /14 days, Oct. 6 (8 DAT)): 7.3 | Visual Turfgrass Quality, MEAN ([2]; Trt. 4, 0.1 lb N/1000 sq. ft. /14 days, Sept. 19 (6 DAT)): 7.3 | Visual Turfgrass Quality, MEAN ([2]; Trt. 5, 0.05 lb N/1000 sq. ft. /14 days, Oct. 1 (3 DAT)): 7.0 | Visual Turfgrass Quality, MEAN ([2]; Trt. 5, 0.05 lb N/1000 sq. ft. /14 days, Oct. 6 (8 DAT)): 6.8 | Visual Turfgrass Quality, MEAN ([2]; Trt. 5, 0.05 lb N/1000 sq. ft. /14 days, Sept. 19 (6 DAT)): 6.8 | Turfgrass Color (Greenness), MEAN, NDVI reading [3, 9]: 0.761 | Turfgrass Color (Greenness), MEAN, NDVI reading [3, 10]: 0.755 | Clippings (Biomass) Dry wt (g) [4, 11]: 7.21 f g | Clippings (Biomass) Dry wt (g) [4, 12]: 7.87 f g | Clippings (Biomass) Dry wt (g) [4, 13]: 9.77 bcd g | Dew rating, Mean [5, 9]: 5.0 | Dew rating, Mean [5, 10]: 5.0 | Turfgrass Quality [6]: 6.0 c | Visual Growth (Biomass) [7, 11]: 3 ef | Visual Growth (Biomass) [7, 12]: 3.75 de | Visual Growth (Biomass) [7, 13]: 3.75 de | Turfgrass Quality [8, 11]: 6.5 ef | Turfgrass Quality [8, 12]: 6.75 de | Turfgrass Quality [8, 13]: 7.5 bc
